Assay [1] has as its system grasses. In words: herbicidal activity against grasses, applied in aqueous solution. It is filed as in vivo. The settings on record: applied in an aqueous solution at 500-2000 ppm.
The test system of assay [2] is broad leaved weeds. In words: herbicidal activity against broad leaved weeds, applied in aqueous solution. It is filed as in vivo. The settings on record: applied in an aqueous solution at 500-2000 ppm.
The subject of assay [3] is glufosinate-resistant corn. Briefly: crop selectivity. It is filed as in vivo. Conditions: aqueous solution at 500-2000 ppm.
Assay [4] in a line: general herbicidal character (selective or non-selective). Conditions: in vivo.

For the compound `CP(=O)(O)CCC(N)C(=O)Oc1cc(Cl)nnc1-c1ccccc1` (racemic) [Example 1, 6-chloro-3-phenylpyridazin-4-yl 4-[hydroxyl(methyl)phosphinoyl]-DL-alaninate], the “herbicidal activity against grasses” value in assay [1] is reported as “active”. Also, the “herbicidal activity against broad leaved weeds” value in assay [2] was “active”. Besides, in assay [3], the selectivity to crop result is given as “selective”.
Regarding `CP(=O)(O)CCC(N)C(=O)Oc1c(Cl)cnc(Cl)c1Cl` (racemic) [Example 2], the “herbicidal activity against grasses” value in assay [1] is “active”. Moreover, the “herbicidal activity against broad leaved weeds” value in assay [2] is reported as “active”. For the same compound, in assay [4], the “herbicide selectivity (general)” value is “powerful non-selective herbicide”.
